Molecules are shown by their SMILES.

The source of these data is ChEMBL document CHEMBL1122105, “Synthesis, decomposition kinetics, and preliminary toxicological studies of pure N-acetyl-p-benzoquinone imine, a proposed toxic metabolite of acetaminophen” (J Med Chem, 1982).

Data set [1] in a line: Toxicity in mice 24 hr after ip administration. Conditions: mouse, in vivo. The format is organism-based.
Data set [2] can be described thus: Half life was determined. Conditions: rat. It is filed as ADME.
A short description of data set [3]: Second order rate constant was determined. The format is functional.
Data set [4] in a line: Rate constant was determined. The format is functional.

In data set [1], `CC(=O)Nc1ccc(O)cc1` [ACETAMINOPHEN] yielded an LD50 at 24 h of 500 mg/kg.

`CC(=O)N=C1C=CC(=O)C=C1`: the half-life in data set [2] was 11 min. This compound also returned an LD50 at 24 h in data set [1] of 20 mg/kg. In data set [3], this compound returned a Second order of 0.625 M/s. In addition, the Rate constant in data set [4] is 0.00011 M/s.

Usually LD50 stands for the dose at which mortality reaches 50%. What is called half-life is the time in which the quantity being followed falls by half. Low readings indicate rapid decline, high ones slow decline.
